Legend:
Assay type in all cases: cell-based
[1] = system: Lactobacillus acidophilus NCFM (LA-1); experiment: Growth (turbidity) and lactic acid producing activity in MRS broth, L. acidophilus NCFM; conditions: for pH: 0.1% in MRS (polysorbate 80 1.0 g/liter)
Description: (§1) At specified time intervals, a 30 ml sample from each flask was aseptically transferred into a HACH […] Turbidimeter sample cell. The turbidity of each sample was read and the results were reported in NTU's. The same 30 ml sample used for the turbidity reading was transferred into a 250 ml glass beaker, and the pH was recorded. The sample was titrated using 0.1N NaOH to an endpoint of pH 6.8, and the quantity of NaOH used was recorded. The % Lactic Acid was calculated using the following formula: % Lactic Acid=((mls of 0.1N NaOH)×(0.1N)×(90 gm/mole)×(1 L/1000 ml))×100 mls of sample % Lactic Acid=(mls of 0.1N NaOH)×(0.9) (Results reported at 12 hours and 23 hours like: 12/23 in Table I below)

[2] = system: Lactobacillus rhamnosus Lr-32 (LR-44); experiment: Growth (turbidity) and lactic acid producing activity in MRS broth, L. rhamnosus Lr-32; conditions: for pH: 0.1% in MRS (polysorbate 80 1.0 g/liter)
Description: as §1, with “Each flask was tempered to 37° C. and aseptically inoculated with 0.14 gm of the individual probiotic strains (in Examples 5 to 10 below) to be tested. At” for “At”, “IV” for “I”

[3] = system: Lactobacillus salivarius Ls-33 (LS-30); experiment: Growth (turbidity) and lactic acid producing activity in MRS broth, L. salivarius Ls-33; conditions: for pH: 0.1% in MRS (polysorbate 80 1.0 g/liter)
Description: as §1, with “Each flask was tempered to 37° C. and aseptically inoculated with 0.14 gm of the individual probiotic strains (in Examples 5 to 10 below) to be tested. At” for “At”, “V” for “I”

[4] = system: Lactobacillus paracasei Lpc-37 (F-19); experiment: Growth (turbidity) and lactic acid producing activity in MRS broth, L. paracasei Lpc-37
Description: as §1, with “Each flask was tempered to 37° C. and aseptically inoculated with 0.14 gm of the individual probiotic strains (in Examples 5 to 10 below) to be tested. At” for “At”, “III” for “I”

[5] = system: THERALAC® Lot #32310A probiotic strains; experiment: Growth of the commercial probiotic […] in MRS broth (turbidity, lactic acid, pH); conditions: for pH: 0.1% in MRS (polysorbate 80 1.0 g/liter)
Description: MRS broth was prepared with (for controls) and without (for tests) polysorbate 80 and filled into 1 liter screw cap flasks at 500 ml each and autoclaved at 121° C. for 30 minutes. Various lecithin and/or oleic acid additives, or nothing (negative control), was added to the tests flasks prior to autoclaving. The flasks were then tempered to 37° C. in a water bath and inoculated at 0.1% with […]® Lot #32310A, a commercial probiotic product (Master Supplements, Inc., Victoria, Minn.). Capsules of […]® were opened and the contents mixed aseptically to serve as the inoculum source. At an inoculation rate of 0.1%, approximately 80 million CFU was added per ml of MRS media. […]® contains (formulation strength) the following probiotic strains at the approximate CFU values listed per gram: Turbidity, pH and titrations (made with 0.1 N NaOH and reported as % lactic acid) were made at various times up to 23 hours. The results are presented below in Table VI for the 12 and 23-hour analyses.

[6] = system: Bifidobacterium lactis Bl-04 (BL-34); experiment: Growth (turbidity) and lactic acid producing activity in MRS broth, B. lactis Bl-04; conditions: 0.1% in MRS (polysorbate 80 1.0 g/liter)
Description: as §1, with “Each flask was tempered to 37° C. and aseptically inoculated with 0.14 gm of the individual probiotic strains (in Examples 5 to 10 below) to be tested. At” for “At”, “II” for “I”

[7] = 0.1% in MRS (polysorbate 80 1.0 g/liter), 12 hours

## CCCCCCCC/C=C\CCCCCCCC(=O)O [Oleic Acid, oleic acid]
[1]; 0.1% inclusion rate in MRS
  effectiveness as polysorbate 80 replacement (growth and lactic acid production), in words: somewhat effective as a polysorbate 80 replacement but not as effective as either sunflower or soy lecithin
[2]; 0.1% inclusion rate in MRS
  effectiveness as polysorbate 80 replacement, in words: shows an improvement over no polysorbate 80 on the 23-hour test but shows a significant lag phase at 12 hours; it is not as good a replacement for polysorbate 80 as sunflower lecithin
[3]; 0.1% inclusion rate in MRS
  effectiveness as polysorbate 80 replacement, in words: not as good a replacement as a lag phase is apparent at 12 hours
[4]; 0.1% inclusion rate in MRS
  effectiveness as polysorbate 80 replacement, in words: shows an improvement over no polysorbate 80 but is not as effective a replacement for polysorbate 80 as sunflower lecithin
[5]; 0.1% inclusion rate in MRS
  effectiveness as polysorbate 80 replacement, in words: acceptable replacement value for polysorbate 80 but is not as effective as either of the lecithins

## polysorbate 80
[1]; 12 hours
  pH: 4.2
[1]; 23 hours
  pH: 4.1
[2]; 12 hours
  pH: 4.0
[2]; 23 hours
  pH: 3.7
[3]; 12 hours
  pH: 3.8
[3]; 23 hours
  pH: 3.7
[4]; [7]
  Lactic Acid %: 0.99%
  pH: 4.2
[4]; 0.1% in MRS (polysorbate 80 1.0 g/liter), 23 hours
  pH: 3.9
[6]; 12 hours
  Lactic Acid %: 0.57%
  pH: 4.8
[6]; 23 hours
  Lactic Acid %: 0.84%
  pH: 4.5
[5]; 12 hours
  pH: 3.9
[5]; 23 hours
  pH: 3.7

Reference: US8105577B1, “Prebiotic composition for increasing probiotic growth rate and activity” (Master Supplements, Inc., priority 2010, dated 2012)
